Experimental data: US20240366775A1, “HUMAN TRANSFERRIN RECEPTOR BINDING ANTIBODY-PEPTIDE CONJUGATE” (PEPTIDREAM INC., priority 2021, published 2024)

What was measured:
[1] = molecular target: human transferrin receptor (hTfR) (Homo sapiens, UniProt P02786); assay: SPR measurement of peptide binding to hTfR; conditions: naked peptide (1st to 15th amino acids, without linker part) corresponding to the listed linker-attached peptide; read-out: SPR of naked peptide (KD for binding to hTfR)
Description: Note that ND indicates No Data (here, it means that no data was obtained).

[2] = molecular target: T1, PD-L1 (Homo sapiens, UniProt Q9NZQ7); assay: ELISA bindability of atezolizumab-peptide conjugate to PD-L1; type: binding; conditions: sample at 100 nM, average absorbance of two measurements
T1 construct: purchased R&D SYSTEMS 9049-B7
T1 sequence (Q9NZQ7 19-290): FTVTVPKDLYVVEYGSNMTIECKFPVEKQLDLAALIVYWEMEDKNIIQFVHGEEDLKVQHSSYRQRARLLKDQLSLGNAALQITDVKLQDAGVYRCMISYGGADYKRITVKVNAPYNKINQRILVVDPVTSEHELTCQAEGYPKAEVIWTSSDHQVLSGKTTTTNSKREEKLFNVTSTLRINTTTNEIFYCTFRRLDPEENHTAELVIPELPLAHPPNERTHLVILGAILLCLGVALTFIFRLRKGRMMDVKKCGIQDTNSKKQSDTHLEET
Procedure: The bindability of atezolizumab-peptide conjugates to the antigen PD-L1 was measured by ELISA.
100 μg of PD-L1 (R&D SYSTEMS, Cat. No. 9049-B7) was dissolved in PBS (Nacalai Tesque, Inc., Cat. No. 27575-31) to a final concentration of 1 g/L. To the dissolved PD-L1, 5 equivalents of 10 mM NHS-PEG4-Biotin (Thermo Scientific, Cat. No. A39259) was added and incubated at 4° C. overnight to biotinylate PD-L1. To a column packed with 1 mL of Bio-Gel P-6 (Bio-Rad, Cat. No. 1504130), swollen with a solution of polyoxyethylene sorbitan monolaurate (Nacalai Tesque, Inc., Cat. No. 28353-85) added to PBS to a final concentration of 0.1% (PBST), 100 μL of the above solution was added per one column to remove unreacted NHS-PEG4-Biotin.
Random biotinylated PD-L1 was added to IMMOBILIZER STREPTAVIDIN F96 clear (NUNC, Cat. No. 436014) at 1 μmol per one well and incubated at 4° C. overnight to perform solidification. The plate was washed with 900 μL of PBST in a plate washer (TECAN, HydroSpeed). 300 μL of 1% Block Ace (KAC Co., Ltd., Cat. No. UK-B80) was added per one well and incubated at room temperature for 90 minutes to perform blocking treatment. The plate was washed with 900 μL of PBST in the plate washer. […] The absorbance at 450 nm was measured in a plate reader (Enspir (trademark), Perkin Elmer).

[3] = ELISA no-target control wells (non-specific binding of antibodies and antibody-peptide conjugates); conditions: sample at 100 nM, no target immobilized
Procedure: Random biotinylated PD-1 was added to IMMOBILIZER STREPTAVIDIN F96 clear (NUNC, Cat. No. 436014) at 1 μmol per one well and incubated at 4° C. overnight to perform solidification. The plate was washed with 900 μL of PBST in a plate washer (TECAN, HydroSpeed). 300 μL of 1% Block Ace (KAC Co., Ltd., Cat. No. UK-B80) was added per one well and incubated at room temperature for 90 minutes to perform blocking treatment. The plate was washed with 900 μL of PBST in the plate washer. […] The plate was washed with 900 μL of PBST in the plate washer. 50 μL of Goat Anti-Human IgG H&L (HRP) (Abcam, Cat. No. ab97165) diluted 50,000 times with PBST-0.1% Block Ace solution was added and incubated at room temperature for 45 min. The plate was washed with 900 μL of PBST in the plate washer. 50 μL of TMB Solution (Sara care, Cat. No. 5150-0077) at room temperature was added and color development was performed at room temperature for 10 min in dark place, then 50 μL of TMB Stop Solution (Sara care, Cat. No. 5150-0021) was added to stop the color development. The absorbance at 450 nm was measured in a plate reader (Enspir (trademark), Perkin Elmer).
(§1) Random biotinylated TfR was added to IMMOBILIZER STREPTAVIDIN F96 clear (NUNC, Cat. No. 436014) at 1 μmol per one well and incubated at 4° C. overnight to perform solidification. The plate was washed with 900 μL of PBST in a plate washer (TECAN, HydroSpeed). 300 μL of 1% Block Ace (KAC Co., Ltd., Cat. No. UK-B80) was added per one well and incubated at room temperature for 90 minutes to perform blocking treatment. The plate was washed with 900 μL of PBST in the plate washer. 50 μL of various antibody-peptide conjugate and antibody whose peptide is not modified diluted to a final concentration of 100 nM by 50 mM HEPES pH 7.8-0.1% Block Ace were added and incubated at room temperature for 60 min. The plate was washed with 900 μL of PBST in the plate washer. 50 μL of Goat Anti-Human IgG H&L (HRP) (Abcam, Cat. No. ab97165) diluted 50,000 times with PBST-0.1% Block Ace solution was added and incubated at room temperature for 45 min. The plate was washed with 900 μL of PBST in the plate washer. 50 μL of TMB Solution (Sara care, Cat. No. 5150-0077) at room temperature was added and color development was performed at room temperature for 10 min in dark place, then 50 μL of TMB Stop Solution (Sara care, Cat. No. 5150-0021) was added to stop the color development. The absorbance at 450 nm was measured in a plate reader (Enspir (trademark), Perkin Elmer).

[4] = molecular target: T2, human TfR (Homo sapiens, UniProt P02786); assay: ELISA bindability of various antibody-peptide conjugates to TfR; type: binding; conditions: sample at 100 nM, average absorbance of two measurements
T2 construct: made in house
T2 sequence (P02786 whole entry): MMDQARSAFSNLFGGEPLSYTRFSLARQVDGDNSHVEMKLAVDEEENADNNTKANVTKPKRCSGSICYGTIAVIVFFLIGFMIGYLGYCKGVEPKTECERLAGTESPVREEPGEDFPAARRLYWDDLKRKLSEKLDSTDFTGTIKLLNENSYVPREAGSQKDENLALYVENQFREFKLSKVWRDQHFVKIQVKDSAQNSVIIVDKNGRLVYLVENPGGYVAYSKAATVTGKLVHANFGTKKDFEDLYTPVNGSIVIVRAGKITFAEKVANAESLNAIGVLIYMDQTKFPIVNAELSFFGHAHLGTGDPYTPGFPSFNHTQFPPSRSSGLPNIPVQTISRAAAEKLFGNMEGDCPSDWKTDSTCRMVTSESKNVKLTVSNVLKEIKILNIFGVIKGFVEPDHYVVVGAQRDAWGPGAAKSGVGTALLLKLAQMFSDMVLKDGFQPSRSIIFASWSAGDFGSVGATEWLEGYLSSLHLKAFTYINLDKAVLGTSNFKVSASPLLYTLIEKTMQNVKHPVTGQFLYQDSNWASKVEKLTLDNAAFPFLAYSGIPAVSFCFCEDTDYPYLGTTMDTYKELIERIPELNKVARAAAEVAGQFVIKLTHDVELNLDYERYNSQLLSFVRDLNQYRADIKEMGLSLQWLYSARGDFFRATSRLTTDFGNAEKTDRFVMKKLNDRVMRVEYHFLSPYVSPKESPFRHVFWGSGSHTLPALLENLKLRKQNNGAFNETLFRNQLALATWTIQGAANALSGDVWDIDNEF
Procedure: as §1

[5] = Test substance concentration in plasma, hTfR-KI mouse; type: in vivo, hTfR-KI mice; conditions: Example 7-2, tail vein 5 mg/kg, 1, 3, 6 and 24 hours, FIG. 2-3
Procedure: Blood was drawn from the tail vein after 1 and 3 hours from administration (2 mice/time point). After 6 and 24 hours from administration, mice were anesthetized with isoflurane, blood was drawn from the right ventricle, and then perfused with saline from the left ventricle for 4 to 5 min for blood removing treatment. Blood was collected using an EDTA-2K-treated needle and syringe, and the collected blood was kept on ice until it was separated into plasma.
To Strept Avidin plate (Meso Scale Diagnostics, LLC), 150 μL/well of Blocker Casein in PBS (Thermo Fisher Scientific, Inc.) was added and shaken (26° C., 500 rpm) for 60 min in a plate shaker (Biosan) to perform blocking treatment. The Blocker Casein in PBS was removed from the Strept Avidin plates, and 200 μL/well of PBST was added to each plate and washed. 25 μL/well of Capture antibody solution was added to each Strept Avidin plate, and the plates were shaken (26° C., 500 rpm) for 60 min in a plate shaker. Capture antibody solution was removed and PBST was added 200 μL/well and washed. This washing operation was performed three times. […] The concentration of each test substance in the samples were calculated by adding 150 μL/well of 2×Read Buffer T to each Strept Avidin plate and measuring with a plate reader (Sector S600, Meso Scale Diagnostics, LLC).

[6] = Test substance concentration in tissue (brain migration), hTfR-KI mouse; type: in vivo, hTfR-KI mice; conditions: Example 7-2, tail vein 5 mg/kg, 6 and 24 hours, heart, lung, liver, spleen, kidney, quadriceps muscle, FIG. 2-4
Procedure: Blood was drawn from the tail vein after 1 and 3 hours from administration (2 mice/time point). After 6 and 24 hours from administration, mice were anesthetized with isoflurane, blood was drawn from the right ventricle, and then perfused with saline from the left ventricle for 4 to 5 min for blood removing treatment. Blood was collected using an EDTA-2K-treated needle and syringe, and the collected blood was kept on ice until it was separated into plasma. After blood removing treatment, brains were harvested and divided into left and right portions, and the left brain was embedded in a freeze-embedding agent (OCT compound, Sakura Finetek Co., Ltd.) for immunostaining and a frozen block was prepared. The right brain, heart, lung, liver, spleen, kidney, and quadriceps muscle were collected for measurement of test substance concentrations in tissues, weighed, flash-frozen in liquid nitrogen, and stored at −70° C. or less. […]
To Strept Avidin plate (Meso Scale Diagnostics, LLC), 150 μL/well of Blocker Casein in PBS (Thermo Fisher Scientific, Inc.) was added and shaken (26° C., 500 rpm) for 60 min in a plate shaker (Biosan) to perform blocking treatment. […] The concentration of each test substance in the samples were calculated by adding 150 μL/well of 2×Read Buffer T to each Strept Avidin plate and measuring with a plate reader (Sector S600, Meso Scale Diagnostics, LLC).

human transferrin receptor (hTfR), sequence (P02786 whole entry): as above

Molecule | Kd [1] [nM] | Abs450 nm at 100 nM, No-target [3] | also measured
CC[C@H](C)[C@@H]1NC(=O)[C@H](Cc2ccc(O)cc2)NC(=O)[C@H](Cc2ccc(O)cc2)NC(=O)[C@H](CC(N)=O)NC(=O)[C@H](Cc2c[nH]c3ccccc23)NC(=O)[C@H](C(C)C)NC(=O)[C@H](Cc2ccccc2)NC(=O)[C@H](C(C)C)NC(=O)[C@H](C)NC(=O)CSC[C@@H](C(=O)NCCOCCOCCOCCOCCOCCOCCOCCOCCOCCOCCOCCOCCOCCOCCOCCOCCOCCOCCOCCOCCOCCOCCOCCOCCOCCOCCOCCOCCOCCOCCOCCOCCOCCOCCOCCOCCC(=O)ON2C(=O)CCC2=O)NC(=O)[C@H](Cc2ccc(O)cc2)N(C)C(=O)[C@H](Cc2ccc(O)cc2)NC(=O)[C@H](CCCNC(=N)N)NC(=O)[C@H](CCCNC(=N)N)NC(=O)[C@H]([C@@H](C)CC)NC1=O [JCR_hTfR_000894_PEG36_(NHS)] | < 1 |  | 
CC[C@H](C)[C@@H]1NC(=O)[C@H](Cc2ccc(O)cc2)NC(=O)[C@H](Cc2ccc(O)cc2)NC(=O)[C@H](CC(N)=O)NC(=O)[C@H](Cc2c[nH]c3ccccc23)NC(=O)[C@H](C(C)C)NC(=O)[C@H](Cc2ccccc2)NC(=O)[C@H](C(C)C)NC(=O)[C@H](C)NC(=O)CSC[C@@H](C(=O)NCCOCCOCCOCCOCCC(=O)NN)NC(=O)[C@H](Cc2ccc(O)cc2)N(C)C(=O)[C@H](Cc2ccc(O)cc2)NC(=O)[C@H](CCCNC(=N)N)NC(=O)[C@H](CCCNC(=N)N)NC(=O)[C@H]([C@@H](C)CC)NC1=O [hTIR 000894_PEG4_(Hydrazide)] | < 1 |  | 
CC[C@H](C)[C@@H]1NC(=O)[C@H](Cc2ccc(O)cc2)NC(=O)[C@H](Cc2ccc(O)cc2)NC(=O)[C@H](CC(N)=O)NC(=O)[C@H](Cc2c[nH]c3ccccc23)NC(=O)[C@H](C(C)C)NC(=O)[C@H](Cc2ccccc2)NC(=O)[C@H](C(C)C)NC(=O)[C@H](C)NC(=O)CSC[C@@H](C(=O)NCCOCCOCCOCCOCCOCCOCCOCCOCCOCCOCCOCCOCCOCCOCCOCCOCCOCCOCCOCCOCCOCCOCCOCCOCCOCCOCCOCCOCCOCCOCCOCCOCCOCCOCCOCCOCCC(=O)NN)NC(=O)[C@H](Cc2ccc(O)cc2)N(C)C(=O)[C@H](Cc2ccc(O)cc2)NC(=O)[C@H](CCCNC(=N)N)NC(=O)[C@H](CCCNC(=N)N)NC(=O)[C@H]([C@@H](C)CC)NC1=O [hTIR_000894_PEG36_(Hydrazine)] | < 1 |  | 
atezolizumab |  | 0.043 | Abs450 nm at 100 nM, Target PD-L1 [2]: 2.237; Abs450 nm at 100 nM, Target hTfR [4]: 0.0465
nivolumab [Nivolumab (control)] |  |  | concentration in plasma, time course [5]: detected in plasma at all time points evaluated and showed biphasic changes in plasma concentrations; detection in tissues [6]: detected in all tissues

The next lines start with results.

Kd [1] [nM] | Abs450 nm at 100 nM, No-target [3] | Molecule | also measured
< 1 |  | CC[C@H](C)[C@@H]1NC(=O)[C@H](Cc2ccc(O)cc2)NC(=O)[C@H](Cc2ccc(O)cc2)NC(=O)[C@H](CC(N)=O)NC(=O)[C@H](Cc2c[nH]c3ccccc23)NC(=O)[C@H](C(C)C)NC(=O)[C@H](Cc2ccccc2)NC(=O)[C@H](C(C)C)NC(=O)[C@H](C)NC(=O)CSC[C@@H](C(=O)NCC(=O)N[C@@H](CCC(=O)O)C(=O)NCC(=O)N[C@@H](CCC(=O)O)C(=O)NCCOCCOCCOCCOCCOCCOCCOCCOCCOCCOCCOCCOCCC(=O)NN)NC(=O)[C@H](Cc2ccc(O)cc2)N(C)C(=O)[C@H](Cc2ccc(O)cc2)NC(=O)[C@H](CCCNC(=N)N)NC(=O)[C@H](CCCNC(=N)N)NC(=O)[C@H]([C@@H](C)CC)NC1=O [hTfR_894_(GEGE)PEG12_Hydrazide] | 
< 1 |  | CC[C@H](C)[C@@H]1NC(=O)[C@H](Cc2ccc(O)cc2)NC(=O)[C@H](Cc2ccc(O)cc2)NC(=O)[C@H](CC(N)=O)NC(=O)[C@H](Cc2c[nH]c3ccccc23)NC(=O)[C@H](C(C)C)NC(=O)[C@H](Cc2ccccc2)NC(=O)[C@H](C(C)C)NC(=O)[C@H](C)NC(=O)CSC[C@@H](C(=O)NCCOCCOCCOCCOCCOCCOCCOCCOCCOCCOCCOCCOCCC(=O)NN)NC(=O)[C@H](Cc2ccc(O)cc2)N(C)C(=O)[C@H](Cc2ccc(O)cc2)NC(=O)[C@H](CCCNC(=N)N)NC(=O)[C@H](CCCNC(=N)N)NC(=O)[C@](C)([C@@H](C)CC)NC1=O [hTfR_000894_PEG11_(Hydrazine)] | 
< 1 |  | CC[C@H](C)[C@@H]1NC(=O)[C@H](Cc2ccc(O)cc2)NC(=O)[C@H](Cc2ccc(O)cc2)NC(=O)[C@H](CC(N)=O)NC(=O)[C@H](Cc2c[nH]c3ccccc23)NC(=O)[C@H](C(C)C)NC(=O)[C@H](Cc2ccccc2)NC(=O)[C@H](C(C)C)NC(=O)[C@H](C)NC(=O)CSC[C@@H](C(=O)NCCOCCOCCOCCOCCOCCOCCOCCOCCOCCOCCOCCOCCC(=O)N[C@@H](CCCCNC(=O)C2CCC(CN3C(=O)C=CC3=O)CC2)C(N)=O)NC(=O)[C@H](Cc2ccc(O)cc2)N(C)C(=O)[C@H](Cc2ccc(O)cc2)NC(=O)[C@H](CCCNC(=N)N)NC(=O)[C@H](CCCNC(=N)N)NC(=O)[C@H]([C@@H](C)CC)NC1=O (some centres unmarked) [hTfR_000894_PEG11_K (Maleimide)] | 
 | 0.044 | ipilimumab | 
 | 0.0415 | pembrolizumab | 
 | 0.0455 | pertuzumab | 
